In article PMC7555839 (Frontiers in Microbiology, 2020):
Read-outs that look alike come from different tables or passages of the source.

Tests used:
S. aureus USA300 JE2 [1] = experiment: Agar dilution MIC; type: cell-based; conditions: Staphylococcus aureus, MHA plates
Procedure: (§1) Initially, MHA plates with JBC 1847 concentrations ranging from 0.5 to 8 mg/L were made and bacterial inoculum was prepared as previously described, was added to each plate. […] The MIC values for the two S. aureus strains were both determined to 4 mg/L and therefore, TSA plates with a JBC 1847 concentration of 2 mg/L were prepared to ensure the strains were able to grow. One dish of each type of antibiotic was added to a single TSA plate with JBC 1847 and a control plate containing only TSA and inoculated as previously described. Two plates containing only 2 mg/L JBC 1847 and bacterial inoculum for each strain served as a positive control. After incubation, clearing zones were measured and compared between control and JBC 1847 plates.

S. aureus ATCC-BAA = experiment: Agar dilution MIC; type: cell-based; conditions: Staphylococcus aureus, MHA plates
Procedure: as §1

[2] = test system: Salmonella typhimurium TA1537; experiment: Ames test; conditions: for Mutagenicity ratio (MR): TA1537, 4 μg/well
S. aureus USA300 JE2 [3] = experiment: Broth microdilution with 20% human serum; type: cell-based, Staphylococcus aureus
Procedure: (§2) In addition, whether serum proteins affected the activity of JBC 1847 against three S. aureus strains (USA300 JE2, ATCC BAA-1556 and CC398 in house strain) was investigated. Broth microdilution assays analog to previously described, with a 20% human serum (Sigma-Aldrich, Brøndby, Denmark) concentration were carried for three S. aureus strains (Table 1). MIC and MBC values were determined as previously described.

[4] = test system: S. aureus CC398 in house strain; experiment: Broth microdilution with 20% human serum; type: cell-based, Staphylococcus aureus
Procedure: as §2

S. aureus ATCC BAA-1556 = experiment: Broth microdilution with 20% human serum; type: cell-based, Staphylococcus aureus
Procedure: as §2

[5] = test system: Enterococcus faecalis JEO72G7B; experiment: Broth microdilution (MIC/MBC); type: cell-based; conditions: veterinary clinical isolate
Proteus vulgaris JEO1 = experiment: Broth microdilution (MIC/MBC); type: cell-based; conditions: JEO1, veterinary clinical isolate
[6] = test system: three Gram-negative pathogenic bacteria; experiment: Broth microdilution, summary over Gram-negative isolates; type: cell-based
[7] = test system: Staphylococcus aureus USA300 JE2; experiment: Broth microdilution (MIC/MBC); type: cell-based; conditions: USA300 JE2, human clinical isolate
[8] = test system: eight Gram-positive pathogenic bacteria; experiment: Broth microdilution, summary over Gram-positive isolates; type: cell-based
MRSA strain 43484 = experiment: Mouse skin (wound) infection model, topical treatment; type: in vivo, Staphylococcus aureus; conditions: 50 μl topical twice daily for 3 days, female mice, skin biopsies day 4
Procedure: To study the effect of topical treatment with JBC 1847 against MRSA strain 43484, a mouse skin infection model was established. Initially, female mice (18–22 g) were orally treated with 45 μl nurofen (20 mg ibuprofen/ml) and anaesthetized with 0.15 ml s.c. of Zoletil mix. The fur was removed from an area of 6 cm^2 and a part of epidermis was subsequently scraped off to obtain a 1 cm^2 superficial skin lesion. The mice were inoculated with 10 μl of a saline solution containing approximately 10^7 CFU. The day after inoculation, topical treatment with 50 μl test compound was initiated and performed twice daily for a 3-day period. Fucidic acid was included as a positive control, and vehicle treatment was included as a negative control. Through the entire study, the behavior and clinical signs of the mice were carefully observed. Mice were killed the day after last treatment, and skin biopsies from the wounded area were collected. The skin samples were homogenized using a Dispomixer and serially diluted in saline/Triton X. To determine the bacterial concentration, 20 μl spots were transferred to MRSA Brilliance agar plates (Oxoid, Thermo Scientific, Roskilde, Denmark) and incubated 20–48 h at 35°C.
Data were statically analyzed and visualized using RStudio v3.6.3 ([R Core Team, 2020]) and Microsoft excel. In general, the values reflecting the bacterial concentration (CFU/ml) were transformed into a logarithmic scale. In the growth and viability assay, the mean numbers of the bacterial concentrations from the triplicates were plotted against time and standard deviations shown as error bars. To investigate differences in bacterial concentration between treatment groups in the in vivo assay, multiple group comparisons were performed using ANOVA and P < 0.05 considered significant. The data was visualized in a standard box plot.

[9] = test system: Cutibacterium acnes P10140156 (in house strain); experiment: Broth microdilution (MIC/MBC), anaerobic; type: cell-based
[10] = test system: Salmonella typhimurium TA1535
[11] = test system: Escherichia coli E2 (in house strain); experiment: Broth microdilution (MIC/MBC); type: cell-based; conditions: E2, human clinical isolate
[12] = 20% human serum vs assay without serum
[13] = Staphylococcus aureus, 20% human serum
[14] = Staphylococcus aureus, ATCCBAA1556, 20% human serum

## CC(C)=CCCC(C)CC[N+](C)(C)CCCN1c2ccccc2Sc2ccccc21 (centres unmarked) [JBC 1847]
S. aureus USA300 JE2 [1]
  MIC: 4 µg/mL
S. aureus ATCC-BAA
  MIC: 4 µg/mL
[2]; absence of S9
  Mutagenicity ratio (MR): above 2
[2]; presence of S9
  Mutagenicity ratio (MR): above 2
[2]; TA1537, + S9, 1.5 μg/well
  Mean number of reverse mutated colonies: 2.00 ± 2.65
[2]; TA1537, + S9, 10 μg/well
  Mean number of reverse mutated colonies: 0.33 ± 0.58
[2]; TA1537, + S9, 64 μg/well
  Mean number of reverse mutated colonies: 0.0
[2]; TA1537, −S9, 1.5 μg/well
  Mean number of reverse mutated colonies: 5.00 ± 1.00
[2]; TA1537, −S9, 64 μg/well
  Mean number of reverse mutated colonies: 0.0
S. aureus USA300 JE2 [3]; [12]
  Increase in MBC with human serum: 128 fold
  Increase in MIC with human serum: 128 fold
S. aureus USA300 JE2 [3]; [13]
  MBC: 64 µg/mL
  MIC: 64 µg/mL
[4]; [12]
  Increase in MBC with human serum: 128 fold
  Increase in MIC with human serum: 128 fold
[4]; [13]
  MBC: 64 µg/mL
  MIC: 64 µg/mL
S. aureus ATCC BAA-1556; [12]
  Increase in MBC with human serum: 128 fold
  Increase in MIC with human serum: 128 fold
S. aureus ATCC BAA-1556; [14]
  MBC: 64 µg/mL
  MIC: 64 µg/mL
[5]
  MBC: 1 µg/mL
  MIC: 1 µg/mL
Proteus vulgaris JEO1
  MBC: 32 µg/mL
  MIC: 32 µg/mL
[6]
  MIC values (range over isolates): 8 to 32 µg/mL
[7]
  MBC: 0.5 µg/mL
[7]; read-out: MIC
  MIC: 0.5 µg/mL
[8]
  MIC values (range over isolates): 0.5 to 2 µg/mL
MRSA strain 43484; 1% solution
  Reduction of bacterial counts compared with the vehicle: 3.0 log10 CFU
MRSA strain 43484; 2%
  Reduction of bacterial counts compared with the vehicle: 3.7 log10 CFU
[9]; BHI agar with 1% L-cystein
  MBC: 0.5 to 1 µg/mL
[9]; BHI with 1% L-cysteine
  MIC: 0.5 to 1 µg/mL
[10]; TA1535, + S9, 1.5 μg/well
  Mean number of reverse mutated colonies: 24.33 ± 3.21
[10]; TA1535, + S9, 4 μg/well
  Mean number of reverse mutated colonies: 26.67 ± 2.08
[10]; TA1535, + S9, 10 μg/well
  Mean number of reverse mutated colonies: 18.00 ± 5.57
[10]; TA1535, + S9, 64 μg/well
  Mean number of reverse mutated colonies: 0.0
[10]; TA1535, −S9, 1.5 μg/well
  Mean number of reverse mutated colonies: 24.33 ± 3.21
[10]; TA1535, −S9, 4 μg/well
  Mean number of reverse mutated colonies: 26.67 ± 2.08
[10]; TA1535, −S9, 10 μg/well
  Mean number of reverse mutated colonies: 18.00 ± 5.57
[10]; TA1535, −S9, 25 μg/well
  Mean number of reverse mutated colonies: 0.0
[10]; TA1535, −S9, 64 μg/well
  Mean number of reverse mutated colonies: 0.0
[11]
  MBC: 8 µg/mL
  MIC: 8 µg/mL
